Where a name gives a salt, the structure may show the parent alone. A value given as a limit tells only on which side of the number the result lay.

Sequence of ROCK2 (O75116 whole entry, species assumed): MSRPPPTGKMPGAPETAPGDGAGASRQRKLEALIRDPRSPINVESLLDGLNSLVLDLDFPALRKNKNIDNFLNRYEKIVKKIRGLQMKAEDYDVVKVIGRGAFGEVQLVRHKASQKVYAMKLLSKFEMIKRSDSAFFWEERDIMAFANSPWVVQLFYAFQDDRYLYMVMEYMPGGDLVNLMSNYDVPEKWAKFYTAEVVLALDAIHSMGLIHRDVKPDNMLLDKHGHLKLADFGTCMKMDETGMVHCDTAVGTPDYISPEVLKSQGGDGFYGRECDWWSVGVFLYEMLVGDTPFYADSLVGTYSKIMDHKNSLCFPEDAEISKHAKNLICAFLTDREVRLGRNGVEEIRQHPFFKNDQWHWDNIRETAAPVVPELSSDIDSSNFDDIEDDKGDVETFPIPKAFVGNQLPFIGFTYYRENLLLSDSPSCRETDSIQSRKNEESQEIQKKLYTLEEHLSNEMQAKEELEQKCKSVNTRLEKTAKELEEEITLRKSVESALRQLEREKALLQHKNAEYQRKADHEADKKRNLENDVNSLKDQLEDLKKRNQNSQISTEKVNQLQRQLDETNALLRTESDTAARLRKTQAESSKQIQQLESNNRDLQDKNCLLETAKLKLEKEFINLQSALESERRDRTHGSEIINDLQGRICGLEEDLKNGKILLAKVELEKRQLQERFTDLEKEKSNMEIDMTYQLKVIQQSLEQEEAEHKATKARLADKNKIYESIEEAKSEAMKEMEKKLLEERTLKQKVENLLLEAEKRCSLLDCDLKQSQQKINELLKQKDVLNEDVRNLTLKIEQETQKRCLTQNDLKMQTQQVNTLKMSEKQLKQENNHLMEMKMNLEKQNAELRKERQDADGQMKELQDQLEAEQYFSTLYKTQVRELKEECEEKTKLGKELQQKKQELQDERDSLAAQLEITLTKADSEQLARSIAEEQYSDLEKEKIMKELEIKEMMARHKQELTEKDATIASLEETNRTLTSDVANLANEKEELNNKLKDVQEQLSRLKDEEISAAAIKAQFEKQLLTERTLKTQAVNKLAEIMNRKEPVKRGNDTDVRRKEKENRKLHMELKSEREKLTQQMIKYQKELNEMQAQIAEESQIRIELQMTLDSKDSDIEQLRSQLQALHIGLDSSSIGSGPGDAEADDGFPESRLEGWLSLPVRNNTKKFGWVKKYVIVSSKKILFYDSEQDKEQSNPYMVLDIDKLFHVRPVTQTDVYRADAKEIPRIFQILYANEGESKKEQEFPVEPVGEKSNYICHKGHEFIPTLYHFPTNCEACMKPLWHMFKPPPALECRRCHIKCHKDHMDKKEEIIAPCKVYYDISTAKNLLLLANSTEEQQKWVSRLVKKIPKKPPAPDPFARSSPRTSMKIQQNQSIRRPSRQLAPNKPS

The assay concerns the target ROCK2 (Homo sapiens, UniProt O75116). The assay is described as follows: ROCK2 kinase inhibition assay (Caliper LABCHIP, FITC peptide substrate). The format is biochemical. Particulars: 5 μM ATP, 1.5 μM peptide substrate; value ranges. In short, it runs like this: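 Rho kinase with 5 μM ATP and 1.5 μM FITC-AHA-AKRRRLSSLRA-OH peptide in HEPES pH 7.5, 20 mM MgCl2, 0.015% Brij-35, 4 mM DTT, DMSO <2%. EDTA stop; phospho and non-phospho peptide separated on LabChip. IC50 from dose-response fit.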
For `O=C1N(Cc2cccc(F)c2)CCN1c1ccc(-c2ccnc(F)c2)cc1` [Example 51, 1-(3-fluorobenzyl)-3-(4-(2-fluoropyridin-4-yl)phenyl)imidazolidin-2-one], the IC50 lay within 200 to 2000 nM. The same measure for `COc1cccc(C(C)n2ccn(-c3ccc(-c4cn[nH]c4)c(C)n3)c2=O)c1` (single isomer, unassigned) [Example 189, 1-(1-(3-methoxy-phenyl)-ethyl)-3-(6-methyl-5-(1H-pyrazol-4-yl)pyridin-2-yl)-1H-imidazol-2(3H)-one]: 20.1 to 200 nM. Then `COc1cccc([C@@H](C)N2CCN(c3ccc(-c4cn[nH]c4)c(OC)c3)C2=O)c1` [Example 13, (R)-1-(3-Methoxy-4-(1H-pyrazol-4-yl)phenyl)-3-(1-(3-methoxyphenyl)ethyl)imidazolidin-2-one], with below 2 nM. The same measure for `O=C1N(Cc2cccc(F)c2)CCN1c1ccc(-c2ccncc2)cc1` [Example 56, 1-(3-fluorobenzyl)-3-(4-(pyridin-4-yl)phenyl)imidazolidin-2-one, TFA]: 20.1 to 200 nM; for `COc1nc(N2CCN(Cc3cccc(OC(F)F)c3)C2=O)ccc1-c1cn[nH]c1` [Example 233, 1-(3-(difluoromethoxy)benzyl)-3-(6-methoxy-5-(1H-pyrazol-4-yl)pyridin-2-yl)imidazolidin-2-one]: 2.1 to 20 nM; for `COc1cccc(C(C)N2CCN(c3cc(C)c(-c4cn[nH]c4)cn3)C2=O)c1` (single isomer, unassigned) [Example 471, 1-(1-(3-methoxyphenyl)ethyl)-3-(4-methyl-5-(1H-pyrazol-4-yl)pyridin-2-yl)imidazolidin-2-one]: 20.1 to 200 nM. Take `COc1cc(F)ccc1Cn1ccn(-c2ccc(-c3cn[nH]c3)c(OC)n2)c1=O` [Example 383, 1-(4-fluoro-2-methoxybenzyl)-3-(6-methoxy-5-(1H-pyrazol-4-yl)pyridin-2-yl)-1H-imidazol-2(3H)-one]: the IC50 was 20.1 to 200 nM.

In turn, `COc1cccc(Cn2ccn(-c3ccc(-c4cn[nH]c4)c(OC)n3)c2=O)c1` [Example 376, 1-(6-methoxy-5-(1H-pyrazol-4-yl)pyridin-2-yl)-3-(3-methoxybenzyl)-1H-imidazol-2(3H)-one] came in with an IC50 below 2 nM. The same measure for `O=C1CN(CCc2ccccc2)C(=O)N1c1ccc(-c2cn[nH]c2)cc1` [Example 85, 3-(4-(1H-pyrazol-4-yl)phenyl)-1-phenethylimidazolidine-2,4-dione]: 200 to 2000 nM. `COc1cccc(C(C)N2CCN(c3ccc(-c4cn[nH]c4)c(OC)n3)C2=O)c1` (single isomer, unassigned) [Example 219, 1-(6-methoxy-5-(1H-pyrazol-4-yl)pyridin-2-yl)-3-(1-(3-methoxyphenyl)ethyl)imidazolidin-2-one] yielded a half-maximal inhibitory concentration (IC50) below 2 nM. In the case of `CNc1nc(N2CCN(Cc3cccc(OC)c3)C2=O)ccc1-c1cn[nH]c1` [Example 202, 1-(3-methoxy-benzyl)-3-(6-(methyl-amino)-5-(1H-pyrazol-4-yl)pyridin-2-yl)-imidazolidin-2-one], the IC50 fell in the range of 2.1 to 20 nM. For `COc1cccc(CN2CCN(c3cc(C)c(-c4cn[nH]c4)cn3)C2=O)c1` [Example 465, 1-(3-methoxybenzyl)-3-(4-methyl-5-(1H-pyrazol-4-yl)pyridin-2-yl)imidazolidin-2-one], the IC50 lay within 20.1 to 200 nM. Then `COc1cccc(C(C)N2CCN(c3ccc(-c4cn[nH]c4)c(C)c3)C2=O)c1` (single isomer, unassigned) [Example 193, 1-(1-(3-methoxy-phenyl)-ethyl)-3-(3-methyl-4-(1H-pyrazol-4-yl)phenyl) imidazolidin-2-one], with 2.1 to 20 nM; and `CCc1nc(-n2ccn(C(C)c3cccc(OCC4CC4)c3)c2=O)ccc1-c1cn[nH]c1` (single isomer, unassigned) [Example 372, 1-(1-(3-(cyclopropylmethoxy)phenyl)ethyl)-3-(6-ethyl-5-(1H-pyrazol-4-yl)pyridin-2-yl)-1H-imidazol-2(3H)-one], with 20.1 to 200 nM; and `O=C1CN(Cc2cc(F)ccc2F)C(=O)N1c1ccc(-c2cn[nH]c2)cc1` [Example 83, 3-(4-(1H-pyrazol-4-yl)phenyl)-1-(2,5-difluorobenzyl)imidazolidine-2,4-dione], with 200 to 2000 nM. The same measure for `COc1cccc(C(CC(=O)O)N2CCN(c3ccc(-c4cn[nH]c4)c(OC)c3)C2=O)c1` (centres unmarked) [Example 19, 3-(3-(3-Methoxy-4-(1H-pyrazol-4-yl)phenyl)-2-oxoimidazolidin-1-yl)-3-(3-methoxyphenyl)propanoic Acid, TFA]: 20.1 to 200 nM; for `CCc1nc(-n2ccn(C(C)c3cc(F)cc(OC)c3)c2=O)ccc1-c1cn[nH]c1` (single isomer, unassigned) [Example 363, 1-(6-ethyl-5-(1H-pyrazol-4-yl)pyridin-2-yl)-3-(1-(3-fluoro-5-methoxyphenyl)ethyl)-1H-imidazol-2(3H)-one]: 200 to 2000 nM. For `COc1ccc(F)c(CN2CCN(c3ccc(-c4cn[nH]c4)c(F)c3)C2=O)c1` [Example 426, 1-(3-fluoro-4-(1H-pyrazol-4-yl)phenyl)-3-(2-fluoro-5-methoxybenzyl)imidazolidin-2-one], the IC50 was in the range of 2.1 to 20 nM. The same measure for `COc1cccc(CN2CCN(c3ccc(-c4cn[nH]c4)c(OC)n3)C2=O)c1F` [Example 252, 1-(2-fluoro-3-methoxybenzyl)-3-(6-methoxy-5-(1H-pyrazol-4-yl)pyridin-2-yl)imidazolidin-2-one]: 2.1 to 20 nM; for `COc1cc(F)cc(C(C)n2ccn(-c3ccc(-c4cn[nH]c4)c(OC)n3)c2=O)c1` (single isomer, unassigned) [Example 397, 1-(1-(3-fluoro-5-methoxyphenyl)ethyl)-3-(6-methoxy-5-(1H-pyrazol-4-yl)pyridin-2-yl)-1H-imidazol-2(3H)-one]: below 2 nM; for `COc1cccc([C@H](C)N2CCN(c3ccc(-c4cn[nH]c4)cc3)C2=O)c1` [Example 456, (S)-1-(4-(1H-pyrazol-4-yl)phenyl)-3-(1-(3-methoxyphenyl)ethyl)imidazolidin-2-one]: 20.1 to 200 nM. `COc1cc(C(C)n2ccn(-c3ccc(-c4cn[nH]c4)c(OC)n3)c2=O)ccc1F` (single isomer, unassigned) [Example 390, 1-(1-(4-fluoro-3-methoxyphenyl)ethyl)-3-(6-methoxy-5-(1H-pyrazol-4-yl)pyridin-2-yl)-1H-imidazol-2(3H)-one] came in with an IC50 of 20.1 to 200 nM. Then `COc1c(F)cccc1CN1CCN(c2ccc(-c3cn[nH]c3)cc2)C1=O` [Example 264, 1-(4-(1H-pyrazol-4-yl)phenyl)-3-(3-fluoro-2-methoxybenzyl)imidazolidin-2-one], with 20.1 to 200 nM; and `COc1cccc(C(C)n2ccn(-c3ccc(-c4cn[nH]c4)c(C)n3)c2=O)c1` (single isomer, unassigned) [Example 188, 1-(1-(3-methoxy-phenyl)ethyl)-3-(6-methyl-5-(1H-pyrazol-4-yl)pyridin-2-yl)-1H-imidazol-2(3H)-one], with below 2 nM.

Molecule `O=C1N(Cc2cccc(C(F)(F)F)c2)CCN1c1ccc(-c2cn[nH]c2)cn1` [Example 240, 1-(5-(1H-pyrazol-4-yl)pyridin-2-yl)-3-(3-(trifluoromethyl)benzyl)imidazolidin-2-one] came in with an IC50 of 200 to 2000 nM.

`COc1cc(N2CC(=O)N(Cc3c(F)cccc3F)C2=O)ccc1-c1cn[nH]c1` [Example 102, 3-(2,6-difluoro-benzyl)-1-(3-methoxy-4-(1H-pyrazol-4-yl)phenyl) imidazolidine-2,4-dione] showed an IC50 of 20.1 to 200 nM.

`COc1cccc(CN2C(=O)N(c3ccc(-c4cn[nH]c4)cn3)C[C@@H]2CO)c1` [Example 474, (R)-1-(5-(1H-pyrazol-4-yl)pyridin-2-yl)-4-(hydroxymethyl)-3-(3-methoxybenzyl)imidazolidin-2-one] displayed a half-inhibitory concentration (IC50) of 2.1 to 20 nM. Then `COc1cccc(C(C)n2ccn(-c3ccc(-c4ccnc(N)n4)cc3)c2=O)c1` (single isomer, unassigned) [Example 399, 1-(4-(2-aminopyrimidin-4-yl)phenyl)-3-(1-(3-methoxyphenyl)ethyl)-1H-imidazol-2(3H)-one], with 2.1 to 20 nM; and `Cc1ccc(F)cc1Cn1ccn(-c2ccc(-c3cn[nH]c3)cc2)c1=O` [Example 404, 1-(4-(1H-pyrazol-4-yl)phenyl)-3-(5-fluoro-2-methylbenzyl)-1H-imidazol-2(3H)-one], with 20.1 to 200 nM. In turn, `CCc1cc(N2CCN([C@H](C)c3cccc(OC)c3)C2=O)ccc1-c1cn[nH]c1` [Example 272, (R)-1-(3-ethyl-4-(1H-pyrazol-4-yl)phenyl)-3-(1-(3-methoxyphenyl)ethyl)imidazolidin-2-one] yielded an IC50 of 2.1 to 20 nM. For the molecule `COc1cccc(CN2CCN(c3ccc(-c4ccncc4F)cc3)C2=O)c1` [Example 50, 1-(4-(3-fluoropyridin-4-yl)phenyl)-3-(3-methoxybenzyl)imidazolidin-2-one], the IC50 was in the range of 20.1 to 200 nM. `O=c1n(Cc2cccc(OC(F)F)c2)ccn1-c1ccc(-c2cn[nH]c2)cc1` [Example 333, 1-(4-(1H-pyrazol-4-yl)phenyl)-3-(3-(difluoromethoxy)benzyl)-1H-imidazol-2(3H)-one] came in with a concentration for half-maximal inhibition (IC50) of 2.1 to 20 nM.

`O=C1N(Cc2cccc(Cl)c2)CCN1c1ccc(-c2cn[nH]c2)cn1` [Example 237, 1-(5-(1H-pyrazol-4-yl)pyridin-2-yl)-3-(3-chlorobenzyl)imidazolidin-2-one] came in with an IC50 of 20.1 to 200 nM. Then `COc1cccc(CN2CCN(c3ccc(-c4cn[nH]c4)c(OC)c3)C2=O)c1` [Example 7, 1-(3-Methoxy-4-(1H-pyrazol-4-yl)phenyl)-3-(3-methoxybenzyl)imidazolidin-2-one], with 2.1 to 20 nM; and `COc1cccc(CN2CCN(c3cc(F)c(-c4cn[nH]c4)cc3F)C2=O)c1` [Example 447, 1-(2,5-difluoro-4-(1H-pyrazol-4-yl)phenyl)-3-(3-methoxybenzyl)imidazolidin-2-one], with 20.1 to 200 nM.

Values taken from patent US10123993B2, “Cyclic ureas as inhibitors of rock” (BRISTOL-MYERS SQUIBB COMPANY, priority 2015, dated 2018).
